Measured values taken from patent US9242996B2 (Novartis AG, priority 2013, dated 2016).

Biological target: activated ERK2 (Homo sapiens (Human), UniProt P28482)
Experiment: Activated ERK2 kinase assay, ERK2 New conditions (AlphaScreen, ERKtide phosphorylation)
Assay type: biochemical
Settings: 0.25 nM ERK2, 200 nM ERKtide peptide, 35 μM ATP, 30 min preincubation
Outline: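 0.25 nM ERK2 preincubated 30 min with compound, then reacted 2–3 h at ambient temperature with 200 nM ERKtide and 35 µM ATP (final) in HEPES pH 7.5 buffer. EDTA stop; phospho-peptide detected by AlphaScreen after overnight incubation; IC50 from four-parameter fit.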

Sequence of activated ERK2 (P28482 whole entry): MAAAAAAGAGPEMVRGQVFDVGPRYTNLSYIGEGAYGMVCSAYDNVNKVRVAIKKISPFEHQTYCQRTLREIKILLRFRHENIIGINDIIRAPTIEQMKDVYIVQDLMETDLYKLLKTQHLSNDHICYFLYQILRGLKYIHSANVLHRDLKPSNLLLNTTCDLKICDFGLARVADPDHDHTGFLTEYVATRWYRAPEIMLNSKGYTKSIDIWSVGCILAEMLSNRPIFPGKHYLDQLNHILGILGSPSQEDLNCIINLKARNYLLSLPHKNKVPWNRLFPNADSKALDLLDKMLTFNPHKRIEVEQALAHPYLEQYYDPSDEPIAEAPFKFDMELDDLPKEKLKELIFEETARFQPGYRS

IC50 [nM]	Structure (SMILES)
1.74	Nc1ncc(-c2cn[nH]c2)cc1-c1ccc(C(=O)N[C@H](CO)c2ccccc2)c(F)c1 [Example 290, (S)-4-(2-amino-5-(1H-pyrazol-4-yl)pyridin-3-yl)-2-fluoro-N-(2-hydroxy-1-phenylethyl) benzamide]
1.48	CC(C)n1cc(-c2cnc(N)c(-c3ccc(C(=O)N[C@H](CO)c4cccc(S(C)(=O)=O)c4)c(F)c3)c2)cn1 [Example 291, (S)-4-(2-amino-5-(1-isopropyl-1H-pyrazol-4-yl)pyridin-3-yl)-2-fluoro-N-(2-hydroxy-1-(3-(methylsulfonyl)phenyl)ethyl) benzamide]
2.82	CC(C)n1cc(-c2cnc(N)c(-c3ccc(C(=O)N[C@H](CO)c4cccc(F)c4)c(F)c3)c2)cn1 [Example 292, (S)-4-(2-amino-5-(1-isopropyl-1H-pyrazol-4-yl)pyridin-3-yl)-2-fluoro-N-(1-(3-fluorophenyl)-2-hydroxyethyl) benzamide]
0.595	Cc1c(-c2cnc(N)c(-c3ccc(C(=O)N[C@H](CO)c4cccc(F)c4)c(F)c3)c2)cnn1C [Example 295, (S)-4-(2-amino-5-(1,5-dimethyl-1H-pyrazol-4-yl)pyridin-3-yl)-2-fluoro-N-(1-(3-fluorophenyl)-2-hydroxyethyl) benzamide]
1.08	CCn1cc(-c2cnc(N)c(-c3ccc(C(=O)N[C@H](CO)c4cccc(S(C)(=O)=O)c4)c(F)c3)c2)cn1 [Example 296, (S)-4-(2-amino-5-(1-ethyl-1H-pyrazol-4-yl)pyridin-3-yl)-2-fluoro-N-(2-hydroxy-1-(3-(methylsulfonyl)phenyl)ethyl) benzamide]
1.95	CCn1cc(-c2cnc(N)c(-c3ccc(C(=O)N[C@H](CO)c4cccc(F)c4)c(F)c3)c2)cn1 [Example 298, (S)-4-(2-amino-5-(1-ethyl-1H-pyrazol-4-yl)pyridin-3-yl)-2-fluoro-N-(1-(3-fluorophenyl)-2-hydroxyethyl) benzamide]
3.57	CCn1cc(-c2cnc(N)c(-c3ccc(C(=O)N[C@H](C)c4cccc(S(C)(=O)=O)c4)c(F)c3)c2)cn1 [Example 299, (R)-4-(2-amino-5-(1-ethyl-1H-pyrazol-4-yl)pyridin-3-yl)-2-fluoro-N-(1-(3-(methylsulfonyl)phenyl)ethyl) benzamide]
0.221	C[C@@H](NC(=O)c1ccc(-c2cc(-c3cnnn3C)cnc2N)cc1F)c1cccc(Cl)c1 [Example 303, (R)-4-(2-amino-5-(1-methyl-1H-1,2,3-triazol-5-yl)pyridin-3-yl)-N-(1-(3-chlorophenyl)ethyl)-2-fluorobenzamide]
2.5	Cn1nncc1-c1cnc(N)c(-c2ccc(C(=O)N[C@H](CO)c3ccccc3)c(F)c2)c1 [Example 304, (S)-4-(2-amino-5-(1-methyl-1H-1,2,3-triazol-5-yl)pyridin-3-yl)-2-fluoro-N-(2-hydroxy-1-phenylethyl) benzamide]
1.91	Cn1nncc1-c1cnc(N)c(-c2ccc(C(=O)N[C@H](CO)c3cccc(F)c3)c(F)c2)c1 [Example 305, (S)-4-(2-amino-5-(1-methyl-1H-1,2,3-triazol-5-yl)pyridin-3-yl)-2-fluoro-N-(1-(3-fluorophenyl)-2-hydroxyethyl) benzamide]
0.378	Cc1cccc([C@@H](CO)NC(=O)c2ccc(-c3cc(-c4cnnn4C)cnc3N)cc2F)c1 [Example 306, (S)-4-(2-amino-5-(1-methyl-1H-1,2,3-triazol-5-yl)pyridin-3-yl)-2-fluoro-N-(2-hydroxy-1-(m-tolyl)ethyl) benzamide]
0.2	Cn1cc(-c2cnc(N)c(-c3ccc(C(=O)NC(CN)c4cccc(Cl)c4)c(F)c3)c2)cn1 (stereo not drawn) [Example 307, N-(2-amino-1-(3-chlorophenyl)ethyl)-4-(2-amino-5-(1-methyl-1H-pyrazol-4-yl)pyridin-3-yl)-2-fluorobenzamide]
0.242	CS(=O)(=O)c1cc(F)cc(CNC(=O)c2ccc(-c3nc(C4CCOCC4)cnc3N)cc2F)c1 [Example 310, 4-(3-amino-6-(tetrahydro-2H-pyran-4-yl)pyrazin-2-yl)-2-fluoro-N-(3-fluoro-5-(methylsulfonyl)benzyl)benzamide]

Continued, compound first:

Structure (SMILES)	IC50 [nM]
Nc1ncc(C2CC2)nc1-c1ccc(C(=O)N[C@H](CO)c2ccccc2)c(F)c1 [Example 251, (S)-4-(3-amino-6-cyclo-propylpyrazin-2-yl)-2-fluoro-N-(2-hydroxy-1-phenylethyl) benzamide]	7.04
NC[C@@H](NC(=O)c1ccc(-c2nc(C3CC3)cnc2N)cc1F)c1ccccc1 [Example 252, (S)-N-(2-amino-1-phenylethyl)-4-(3-amino-6-cyclo-propylpyrazin-2-yl)-2-fluorobenzamide]	2.6
Nc1ncc(-c2cn[nH]c2)nc1-c1ccc(C(=O)N[C@H](CO)c2ccccc2)c(F)c1 [Example 268, (S)-4-(3-amino-6-(1H-pyrazol-4-yl)pyrazin-2-yl)-2-fluoro-N-(2-hydroxy-1-phenylethyl) benzamide]	4.8
Cc1cc(-c2cc(-c3cnn(C)c3)cnc2N)ccc1C(=O)N[C@H](CO)c1ccccc1 [Example 269, (S)-4-(2-amino-5-(1-methyl-1H-pyrazol-4-yl)pyridin-3-yl)-N-(2-hydroxy-1-phenylethyl)-2-methylbenzamide]	1.08
Cn1cc(-c2cnc(N)c(-c3ccc(C(=O)N[C@H](CO)c4cccc(F)c4)c(F)c3)n2)cn1 [Example 280, (S)-4-(3-amino-6-(1-methyl-1H-pyrazol-4-yl)pyrazin-2-yl)-2-fluoro-N-(1-(3-fluorophenyl)-2-hydroxyethyl) benzamide]	1.66
CS(=O)(=O)c1cccc([C@@H](CO)NC(=O)c2ccc(-c3nc(C4CC4)cnc3N)cc2F)c1 [Example 281, (S)-4-(3-amino-6-cyclo-propylpyrazin-2-yl)-2-fluoro-N-(2-hydroxy-1-(3-(methylsulfonyl)phenyl)ethyl) benzamide]	1.79
Cc1nn(C)cc1-c1cnc(N)c(-c2ccc(C(=O)N[C@H](CO)c3cccc(F)c3)c(F)c2)c1 [Example 282, (S)-4-(2-amino-5-(1,3-dimethyl-1H-pyrazol-4-yl)pyridin-3-yl)-2-fluoro-N-(1-(3-fluorophenyl)-2-hydroxyethyl) benzamide]	1.2
Cc1nn(C)cc1-c1cnc(N)c(-c2ccc(C(=O)N[C@H](CO)c3cccc(S(C)(=O)=O)c3)c(F)c2)c1 [Example 284, (S)-4-(2-amino-5-(1,3-dimethyl-1H-pyrazol-4-yl)pyridin-3-yl)-2-fluoro-N-(2-hydroxy-1-(3-(methylsulfonyl)phenyl)ethyl) benzamide]	0.296
CS(=O)(=O)c1cc(F)cc(CNC(=O)c2ccc(-c3nc(C4CC4)cnc3N)cc2F)c1 [Example 286, 4-(3-amino-6-cyclo-propylpyrazin-2-yl)-2-fluoro-N-(3-fluoro-5-(methylsulfonyl)benzyl)benzamide]	3.9
C[C@@H](NC(=O)c1ccc(-c2nc(C3CC3)cnc2N)cc1F)c1cc(F)cc(S(C)(=O)=O)c1 [Example 287, (R)-4-(3-amino-6-cyclo-propylpyrazin-2-yl)-2-fluoro-N-(1-(3-fluoro-5-(methylsulfonyl)phenyl)ethyl) benzamide]	0.794
C[C@@H](NC(=O)c1ccc(-c2cc(C3CC3)cnc2N)cc1F)c1cc(F)cc(S(C)(=O)=O)c1 [Example 288, (R)-4-(2-amino-5-cyclo-propylpyridin-3-yl)-2-fluoro-N-(1-(3-fluoro-5-(methylsulfonyl)phenyl)ethyl) benzamide]	2.03
